Reference: ChEMBL document CHEMBL5385929, “Tabersonine Enhances Olaparib Sensitivity through FHL1-Mediated Epithelial-Mesenchymal Transition in an Ovarian Tumor” (J Nat Prod, 2024)
Activity calls are given as the source filed them. The calls are words filed in the database; no cut-off is given here.

What was measured:
A2780 [1] = assay: Potentiation of olaparib sensitivity in human A2780 cells assessed as inhibition of colony formation at 10 uM incubated for 48 hrs in presence of olaparib followed by drug wash-out and incubated in fresh medium for 2 weeks by crystal violet staining based analysis; assay type: functional, cell-based
A2780 [2] = assay: Antitumor activity against human A2780 cells xenografted in BALB/c mouse assessed as decrease in tumor volume at 5 to 15 mg/kg, ip administered every other day for 2 weeks; assay type: functional, organism-based; conditions: dose 5-15 mg/kg
SK-OV-3 [3] = assay: Potentiation of olaparib sensitivity in human SK-OV-3 cells transfected with shFLH1-1 RNA assessed as downregulation of EMT signaling by measuring E-cadherin protein expression at 10 uM in presence of olaparib by western blot analysis; assay type: functional, cell-based
A2780 [4] = assay: Antitumor activity against human A2780 cells xenografted in BALB/c mouse assessed as decrease in tumor growth at 5 to 15 mg/kg, ip administered every other day for 2 weeks; assay type: functional, organism-based; conditions: dose 5-15 mg/kg
SK-OV-3 [5] = assay: Downregulation of EMT signalling in human SK-OV-3 cells transfected with shFHL1-1 RNA assessed as N-cadherin protein expression at 10 uM by western blot analysis; assay type: functional, cell-based
Mus musculus [6] = assay: Potentiation of olaparib sensitivity in BALB/c mouse xenografted with shFHL1-1 RNA-transfected human A2780 cells assessed as downregulation of N-cadherin protein expression in tumor at 15 mg/kg, ip co-administered with olaparib for 2 weeks by western blot analysis; assay type: functional, organism-based
Mus musculus [7] = assay: Potentiation of olaparib sensitivity in BALB/c mouse xenografted with shFHL1-1 RNA-transfected human A2780 cells assessed as upregulation of FHL1 protein expression in tumor at 15 mg/kg, ip co-administered with olaparib for 2 weeks by western blot analysis; assay type: functional, organism-based
A2780 [8] = assay: Downregulation of EMT signalling in human A2780 cells transfected with shFHL1-2 RNA assessed as N-cadherin protein expression at 10 uM by western blot analysis; assay type: functional, cell-based
SK-OV-3 [9] = assay: Downregulation of EMT signalling in human SK-OV-3 cells transfected with shFHL1-2 RNA assessed as E-cadherin protein expression at 10 uM by western blot analysis; assay type: functional, cell-based
SK-OV-3 [10] = assay: Inhibition of cell invasion in human SK-OV-3 cells at 10 uM measured after 48 hrs by Transwell assay; assay type: functional, cell-based
A2780 [11] = assay: Inhibition of cell migration in human A2780 cells transfected with shFHL1-2 RNA at 10 uM measured after 24 to 48 hrs by wound healing assay; assay type: functional, cell-based; conditions: time 24-48 hrs
SK-OV-3 [12] = assay: Potentiation of olaparib sensitivity in human SK-OV-3 cells assessed as inhibition of cell viability at 10 uM measured after 5 days in presence of olaparib by CCK8 assay; assay type: functional, cell-based; conditions: time 5.0 day
SK-OV-3 [13] = assay: Antiproliferative activity against human SK-OV-3 cells assessed as inhibition of cell viability measured after 48 hrs by CCK8 assay; assay type: functional, cell-based; conditions: SK-OV-3, 48 h
A2780 [14] = assay: Potentiation of olaparib sensitivity in human A2780 cells assessed as inhibition of cell invasion at 10 uM measured after 48 hrs in presence of olaparib by Transwell assay; assay type: functional, cell-based
A2780 [15] = assay: Potentiation of olaparib sensitivity in human A2780 cells transfected with shFHL1-1 RNA assessed as inhibition of cell invasion at 10 uM measured after 48 hrs in presence of olaparib by Transwell assay; assay type: functional, cell-based
A2780 [16] = assay: Potentiation of olaparib sensitivity in human A2780 cells assessed as downregulation of EMT signaling by measuring upregulation of E-cadherin protein expression at 10 uM in presence of olaparib by western blot analysis; assay type: functional, cell-based
A2780 [17] = assay: Inhibition of cell invasion in human A2780 cells transfected with shFHL1-2 RNA at 10 uM measured after 48 hrs by Transwell assay; assay type: functional, cell-based
SK-OV-3 [18] = assay: Potentiation of olaparib sensitivity in human SK-OV-3 cells transfected with shFLH1-2 RNA assessed as downregulation of EMT signaling by measuring N-cadherin protein expression at 10 uM in presence of olaparib by western blot analysis; assay type: functional, cell-based
A2780 [19] = assay: Upregulation of FHL1 protein expression in human A2780 cells by western blot analysis; assay type: functional, cell-based; conditions: dose 5-20 µM
SK-OV-3 [20] = assay: Inhibition of cell migration in human SK-OV-3 cells transfected with shFHL1-1 RNA at 10 uM measured after 24 to 48 hrs by wound healing assay; assay type: functional, cell-based; conditions: time 24-48 hrs
A2780 [21] = assay: Downregulation of EMT signalling in human A2780 cells assessed as downregulation of vimentin protein expression at 10 uM by western blot analysis; assay type: functional, cell-based
SK-OV-3 [22] = assay: Potentiation of olaparib sensitivity in human SK-OV-3 cells assessed as downregulation of EMT signaling by measuring downregulation of vimentin protein expression at 10 uM in presence of olaparib by western blot analysis; assay type: functional, cell-based
SK-OV-3 [23] = assay: Potentiation of olaparib sensitivity in human SK-OV-3 cells assessed as inhibition of cell migration at 10 uM measured after 24 to 48 hrs in presence of olaparib by wound healing assay; assay type: functional, cell-based; conditions: time 24-48 hrs
SK-OV-3 [24] = assay: Potentiation of olaparib sensitivity in human SK-OV-3 cells assessed as inhibition of colony formation at 10 uM incubated for 48 hrs in presence of olaparib followed by drug wash-out and incubated in fresh medium for 2 weeks by crystal violet staining based analysis; assay type: functional, cell-based
A2780 [25] = assay: Downregulation of EMT signalling in human A2780 cells transfected with shFHL1-1 RNA assessed as vimentin protein expression at 10 uM by western blot analysis; assay type: functional, cell-based
A2780 [26] = assay: Potentiation of olaparib sensitivity in human A2780 cells transfected with shFLH1-1 RNA assessed as downregulation of EMT signaling by measuring E-cadherin protein expression at 10 uM in presence of olaparib by western blot analysis; assay type: functional, cell-based
A2780 [27] = assay: Inhibition of cell migration in human A2780 cells at 10 uM measured after 24 to 48 hrs by wound healing assay; assay type: functional, cell-based; conditions: time 24-48 hrs
A2780 [28] = assay: Potentiation of olaparib sensitivity in human A2780 cells transfected with shFHL1-1 RNA assessed as inhibition of cell migration at 10 uM measured after 24 to 48 hrs in presence of olaparib by wound healing assay; assay type: functional, cell-based; conditions: time 24-48 hrs
Mus musculus [29] = assay: Potentiation of olaparib sensitivity in BALB/c mouse xenografted with shNC RNA-transfected human A2780 cells assessed as downregulation of N-cadherin protein expression in tumor at 15 mg/kg, ip co-administered with olaparib for 2 weeks by western blot analysis; assay type: functional, organism-based
[30] = Toxicity in BALB/c mouse xenografted with human A2780 cells assessed as effect on body weight at 5 to 15 mg/kg, ip administered every other day for 2 weeks; assay type: organism-based; conditions: in vivo, 336 h, dose 5-15 mg/kg
A2780 [31] = assay: Downregulation of EMT signalling in human A2780 cells transfected with shFHL1-1 RNA assessed as N-cadherin protein expression at 10 uM by western blot analysis; assay type: functional, cell-based
A2780 [32] = assay: Potentiation of olaparib sensitivity in human A2780 cells assessed as inhibition of cell viability at 10 uM measured after 5 days in presence of olaparib by CCK8 assay; assay type: functional, cell-based; conditions: time 5.0 day
A2780 [33] = assay: Downregulation of EMT signalling in human A2780 cells transfected with shFHL1-2 RNA assessed as vimentin protein expression at 10 uM by western blot analysis; assay type: functional, cell-based

Structure (SMILES): CC[C@]12C=CCN3CC[C@]4(C(=C(C(=O)OC)C1)Nc1ccccc14)[C@@H]32 [TABERSONINE]
- Activity (A2780 [1]): Active
- Activity (A2780 [2]): Active
- Activity (SK-OV-3 [3]): inactive
- Activity (A2780 [4]): Active
- inhibition (SK-OV-3 [5]): inactive
- Activity (Mus musculus [6]): inactive
- Activity (Mus musculus [7]): inactive
- inhibition (A2780 [8]): inactive
- inhibition (SK-OV-3 [9]): inactive
- inhibition (SK-OV-3 [10]): Active
- inhibition (A2780 [11]): inactive
- Activity (SK-OV-3 [12]): Active
- IC50 (SK-OV-3 [13]): 25 µM
- Activity (A2780 [14]): Active
- Activity (A2780 [15]): inactive
- Activity (A2780 [16]): Active
- inhibition (A2780 [17]): inactive
- Activity (SK-OV-3 [18]): inactive
- Activity (A2780 [19]): Dose-Dependent Effect
- inhibition (SK-OV-3 [20]): inactive
- inhibition (A2780 [21]): Active
- Activity (SK-OV-3 [22]): Active
- Activity (SK-OV-3 [23]): Active
- Activity (SK-OV-3 [24]): Active
- inhibition (A2780 [25]): inactive
- Activity (A2780 [26]): inactive
- inhibition (A2780 [27]): Active
- Activity (A2780 [28]): inactive
- Activity (Mus musculus [29]): Active
- Activity [30]: Non-Toxic
- inhibition (A2780 [31]): inactive
- Activity (A2780 [32]): Active
- inhibition (A2780 [33]): inactive
